In patent US9163044B2, “Carbon monoxide releasing molecules and uses thereof” (Alfama, Inc., priority 2011, dated 2015):

Key:
[1] = carboxyhemoglobin (COHb) levels in treated mice; assay type: in vivo, CD-1 female mice
Method: FIG. 9 depicts the percentage of carboxyhemoglobin (CO-Hb) measured in CD-1 female mice following Compound 3b administration at 300 mg/kg, intravenously. The CO-Hb was quantified over 80 min by using an oximeter (Avoximeter 4000 from A-vox Instruments). The base line of CO-Hb measured with this instrument is 3-4%.

[2] = test system: liver ischemia-reperfusion model; assay: liver ischemia-reperfusion model; assay type: in vivo, C57BL/6 mice; details: 30 mg/kg i.p. 1 h before and 1 h after surgery; ALT 24 h later
Method: Liver ischemia-reperfusion model in C57BL/6 mice. In anesthetized C57BL/6 mice, the hepatic artery and portal vein were clamped for 30 min; 24 h later, serum ALT levels were determined. Compound 3b was dosed i.p. at 30 mg/kg each 1 h before and 1 h after surgery.
FIG. 20 depicts the effect of Compound 3b in the Ischemia-Reperfusion model. In anesthetized C57BL/6 mice, the hepatic artery and portal vein were clamped for 30 min; 24 h later, serum ALT levels were determined. Compound 3b was administered by i.p. injection at 30 mg/kg, 1 hour before and 1 h after surgery.

[3] = test system: murine partial hepatectomy model; assay: liver regeneration, murine partial (70%) hepatectomy model; assay type: in vivo, mice; details: 2×100 mg/kg
Method: Liver regeneration in the murine partial hepatectomy model to test for regenerative activity. Model: partial (70%) liver resection in mice and follow rate of regeneration.
FIG. 22 depicts the effect of Compound 3b in a model of liver regeneration. Animals were anesthetized and 70% of the liver was resected, corresponding to the left and median liver lobes. Compound 3b was administered (2×100 mg/kg) 1 h before and 1 h after surgery. Two days later, animals were sacrificed, livers harvested, weighed, and stained for phospho histone H3 (PH3, a specific marker for cell division).

[4] = test system: primary hepatocytes from C57BL/6 mice; assay: ex-vivo model of apoptosis (ActD/TNF-α); assay type: cell-based, mouse; details: 2×150 μg/0.5 mL well (2×600 μM), 24 hours
Method: FIGS. 21A-21B depict the effect of Compound 3b in an ex-vivo model of apoptosis. Apoptosis of primary hepatocytes from C57BL/6 mice was induced with Actinomycin D (ActD; 200 ng/mL) and Tumour Necrosis Factor-α (TNF-α; 10 ng/mL). Compound 3b was added to the cultures 1 hour before and 1 hour after the addition of the apoptosis inducers ActD/TNF-α. Compound 3b was tested at concentrations of 25, 50, 100 and 150 μg/0.5 mL well. Hepatocytes survival was determined 24 hours after the addition of the apoptosis inducers. FIG. 21A: Percentage of increase in survival ActD/TNF-α treated cells in the presence of Compound 3b, relative to cells treated with only the apoptosis inducers. FIG. 21B: Toxicity of the Compound 3b doses on murine hepatocytes (not treated with apoptosis inducers). Data are the mean±S.D. of 3-5 independent experiments (3-5 livers from different mice).

[5] = test system: lethal APAP liver failure model; assay: lethal APAP liver failure model (500 mg/kg APAP i.p.), survival; details: 2×120 mg/kg, 1 h and 3 h or 3 h and 5 h after APAP (500 mg/kg); 4 days
Method: Compound 3b was tested in a lethal APAP liver failure model (see, e.g. Imaeda et al. J Clin Invest (2009) 119:305-14).
Male C57BL/6 mice fasted overnight to increase CyP450 activity. APAP dosed i.p. at 500 mg/kg. Survival monitored over 3 to 5 days.
FIGS. 18A-18B depicts the survival curve of C57BL/6 mice injected (i.p.) with 500 mg/kg of APAP and treated with Compound 3b. Mice were fasted overnight and APAP was administered afterward (n=15). Compound 3b was administered at a dose of 120 mg/kg at 1 h and 3 h (A) or at 3 h and 5 h (B) after APAP administration. Mice survival was monitored for 4 days.
Mice were fasted overnight and APAP was administered afterward (n=15). Compound 3b was administered at a dose of 120 mg/kg (ip) at +3 h or +4 h after APAP administration. Another group of mice received NAC (150 mg/kg, ip) at +1 h after APAP. The remaining two groups are administered in NAC+ Compound 3b combination mode; one group of mice was administered with NAC (150 mg/kg, ip) at +1 h plus Compound 3b (120 mg/kg, ip)+3 h and other with Compound 3b (150 mg/kg, ip) at +1 h plus Compound 3b (120 mg/kg, ip)+4 h. Mice survival was monitored for 4 days.

[6] = storage stability of the solid; assay type: physicochemical; details: brown vials, ambient temperature, under N2
Description: Following the procedure described by Beck and coworkers (Achatz et al., Anorg. Allg. Chem (2005) 631:2339-2346) saponification of compound (3-a) or (3-c) with NaOH followed by protonation with an acid (e.g., HCl or H2SO4) in aqueous solution led to the formation of tricarbonyl[tris(2-isocyano-2-methyl-propionic acid)]Mo(0) (3-b). Compound (3-b) is stable when stored in brown vials at ambient temperature under N2 for over 6 months or more.

[7] = CO released from Compound 3b in phosphate buffer pH 7.4 alone or with human or rat microsomes (FIG. 8); assay type: in vitro ADME; details: 37° C.
Method: The vials were closed and after mixing, the samples were warmed to 37° C. for 5 minutes before an aliquot (25 μL, 0.5 mg protein content) of rat liver microsomes (BD, Cat. No. 452511) or human liver microsomes (BD, Cat. No. 452161) was added to each vial. In parallel analogous vials with all the reagents except the microsomes were prepared. Due to the light-sensitivity of the molybdenum compounds, the reactions were performed in the dark. The samples were incubated at 37° C. and gas samples of the headspace (from 100 μL to 500 μL) of the vials were removed with a gas-tight syringe after 5, 10, 15, 30, and 60 minutes (in some cases samples were also taken at 1, 2, 3 or 4 minutes) upon microsomes addition. The gas samples were then injected into empty sealed vials (8 mL volume) and the amount of CO present in the vials was measured using GC-RCP.
FIG. 8 depicts the amount of CO released from Compound 3b, expressed in equivalents of CO, in phosphate buffer pH 7.4 (“buffer”), phosphate buffer pH 7.4 in the presence of human microsomes (“human”) or rat microsomes (“rat”). The assay was performed in closed vials during 1 hour at 37° C. A gas aliquot was removed from the air space of the vials and CO concentration was determined by GC-RCP at different time points.

With [C-]#[N+]C(C)(C)C(=O)O.[C-]#[N+]C(C)(C)C(=O)O.[C-]#[N+]C(C)(C)C(=O)O.[C-]#[O+].[C-]#[O+].[C-]#[O+].[Mo] [Compound 3b, tricarbonyl[tris(2-isocyano-2-methyl-propionic acid)]Mo(0)] the COHb in blood ([1]; 300 mg/kg i.v., over 80 min, base line 3-4%) was at most 7.5%, the “symptomatic levels of COHb in blood” value ([1]; therapeutic doses, mice) was “did not cause symptomatic levels of COHb” and the “serum ALT” value [2] was 29 U/L. The “liver weight increase 48 h after resection” value ([3]; 1 h before and 1 h after surgery, control 89%) was 102%, the “PH3 staining (cell division), in words” value ([3]; two days after resection) was “increases PH3 staining” and the “increase in survival of ActD/TNF-α treated hepatocytes relative to inducers only” value [4] was “more than 125%”. The survival [5] was 100%, the stable when stored [6] was “over 6 months” and the “factor by which microsomes accelerate CO release” value ([7]; human or rat microsomes versus buffer, 1 hour) was 4.0-5.5. For the same molecule, the “CO released in pH 7.4 buffer in 1 hour” value ([7]; phosphate buffer pH 7.4, no microsomes) was 0.25 mol equiv. of CO.
